Source: ChEMBL document CHEMBL1157539, “Thousands of chemical starting points for antimalarial lead identification” (Nature, 2010)

These compounds were tested on Plasmodium falciparum (assay: GSK_TCMDC: Inhibition of Plasmodium falciparum 3D7 in whole erythrocytes, using parasite LDH activity as an index of growth.). Settings: not given.
Format: functional, organism-based
Work on `COc1ccc(C=CC(=O)NC2CCC(CN3CCC(c4c[nH]c5ccccc45)CC3)CC2)cc1OC` (stereo not given) yielded an XC50 of 841 nM.

Same assay, conditions: Plasmodium falciparum, 3D7
Work on `COc1cccc(Nc2nnc(SCC(=O)NNC(=O)c3ccccn3)s2)c1` yielded an XC50 of 380 nM.
Work on `O=C(C=Cc1ccc(Cl)c(Cl)c1)NCCCCCN1CCC(CCCNS(=O)(=O)c2cccc(C(F)(F)F)c2)CC1` yielded an XC50 of 477 nM.
`Cc1cc(=NN=Cc2ccccc2)c2cc(F)ccc2[nH]1` showed an XC50 of 579 nM.
In the case of `O=C(NCCNc1ccnc(Nc2ccc(F)cc2)n1)c1cc2ccccc2s1`, the XC50 is reported as 755 nM.
In the case of `CCCCCC(C)NC[C@@H](O)[C@H](Cc1ccccc1)NC(=O)c1cc(NCC)cc(N2CCCCS2(=O)=O)c1` (stereo not given in full), the XC50 is reported as 398 nM.
`OC1(c2ccccc2)c2cc(Cl)ccc2OC1c1nc2c(Cl)ccc(Cl)c2o1` (stereo not given) was tested, and the XC50 was 301 nM.
With `Cc1cc(C)c(-c2n[nH]c3c2C(c2cccc(Cl)c2)N(Cc2ccco2)C3=O)c(O)c1` (stereo not given) the XC50 was 1010 nM.
`CCOc1c(OC)ccc2c1CCN(CCN1CCC(CNC(=O)c3ccc(-c4ccc(C(F)(F)F)cc4)cc3)CC1)C2` was tested, and the XC50 was 849 nM.
With `CCN1CCC(N(Cc2ccc(-c3ccc(C(F)(F)F)cc3)cc2)C(=O)Cn2c(CCc3cccc(F)c3F)cc(=O)c3ccccc32)CC1` the XC50 was 832 nM.
In the case of `Cc1nc(-c2cccc(NCc3ccccc3)c2)[nH]c1C`, the XC50 is reported as 863 nM.
With `N#Cc1ccc(-c2nc3c(N4CCCC4)cccc3n2CCNCc2ccccc2)cc1` the XC50 was 593 nM.
`Cn1cncc1CNCc1ccc(-c2cccc(-c3nc4ccccc4[nH]3)c2)cc1` was tested, and the XC50 was 234 nM.
`O=C(/C=C/c1ccc(Cl)c(Cl)c1)NCCCCN1CCCN(C(=O)Nc2ccc(Cl)c(Cl)c2)CC1` gave an XC50 of 859 nM.
`O=C(c1cccs1)N(Cc1cccc(-c2ccc(CNCCc3ccccc3)cc2)c1)C1CCN(Cc2ccccc2)CC1` was tested, and the XC50 was 860 nM.
For `CCCOc1ccc(CNCCCCCCNCc2ccc(OCCC)c3ccccc23)c2ccccc12`, the XC50 was 410 nM.
Compound `COc1ccc(C(=O)CCC(=O)N(Cc2ccc(-c3ccc(CNCCc4ccc(S(C)(=O)=O)cc4)cn3)cc2)Cc2ccc3c(c2)OCO3)cc1F` has an XC50 of 943 nM.
For `O=C(Nc1cccc(-c2ccc(NCCCN3CCCC3)nc2)c1)c1ccccc1`, the XC50 was 865 nM.
`CCC(Cc1cnc2nc(N)nc(N)c2n1)c1ccc(C(=O)N[C@@H](CCC(=O)O)C(=O)O)cc1` (stereo not given in full) [EDATREXATE] showed an XC50 of 36.7 nM.
For `O=C(Nc1cccc(CN2CCN(C(=O)c3ccccc3)CC2)c1)c1cccs1`, the XC50 was 308 nM.
With `CN(C)CCNCc1ccc(-c2ccc3c(Nc4ccc(Oc5ccccc5)cc4)ccnc3c2)o1` the XC50 was 280 nM.
`CN(C)c1ccc(CN2CCC(NC(=O)c3ccc(-c4ccccc4Cl)s3)CC2)cc1` showed an XC50 of 899 nM.
Compound `CC(=O)Nc1ccc(CN2CCC(NC(=O)c3ccc(-c4cccc(F)c4)s3)CC2)cc1` has an XC50 of 1430 nM.
Compound `O=C(c1ccc(F)c(F)c1)N1CCOC(CCN2CCC(c3ccccc3)CC2)(c2ccc(Cl)c(Cl)c2)C1` (stereo not given) has an XC50 of 1040 nM.
`O=C(N[C@H](CC1CCCCC1)C(=O)NC1CCCc2ccccc21)c1ccc(O)c(-c2cccc([N+](=O)[O-])c2)c1` (stereo not given in full) showed an XC50 of 610 nM.
`CN1CCC(NCc2cccc(-c3ccc(S(=O)(=O)NCCN4CCCC4)c(F)c3)c2)CC1` showed an XC50 of 1010 nM.
`COc1ccc2nccc([C@@H](O)CN3CCC(NCCOc4cccc(C(F)(F)F)c4Cl)CC3)c2c1` gave an XC50 of 154 nM.
For `CC(C)Cc1cn(-c2nc(C(=N)N)cs2)c2cc(Cl)ccc12`, the XC50 was 154 nM.
`CC(=O)Nc1cccc(CNc2cc(C)nc(Nc3ccc(C)cc3)n2)c1` gave an XC50 of 1140 nM.
`CN1CCCN(Cc2cccc(-c3cccc(NC(=O)c4cccc(Cl)c4)c3)c2)CC1` was tested, and the XC50 was 889 nM.
Compound `CN1CCN(c2ccnc3ccc(NC(=O)Cc4ccc(Br)c5ccccc45)cc23)CC1` has an XC50 of 807 nM.
Compound `O=C(Nc1cccc(-c2cccc(-c3nc4ccccc4[nH]3)c2)c1)Nc1ccc(Cl)c(Cl)c1` has an XC50 of 131 nM.
`COc1cc(NCC(C)CNCc2cn(Cc3ccccc3)c3ccccc23)nc2ccccc12` (stereo not given) gave an XC50 of 633 nM.
Compound `COc1ccc2nc(-c3ccccc3)cc(N/N=C/c3ccc([N+](=O)[O-])cc3)c2c1` has an XC50 of 149 nM.
`CCOC(=O)c1cccc(NC(=O)Nc2cc(C)nc3ccccc23)c1` was tested, and the XC50 was 286 nM.
`O=C(O)c1cccc2c(-c3ccncc3)cccc12` was tested, and the XC50 was 937 nM.
`Fc1ccc2[nH]c(-c3cccc(-c4ccc(CNCc5cnn(-c6ccccc6)n5)cc4)c3)nc2c1` was tested, and the XC50 was 917 nM.
With `Cc1cc(NCCc2ccccc2)nc(N/C(=N/CC(=O)OC(C)(C)C)Nc2ccc(C(F)(F)F)cc2)n1` the XC50 was 335 nM.
Work on `O=[N+]([O-])c1cc2c(cc1C=NNc1nc(=Nc3ccccc3)[nH]c(=Nc3ccccc3)[nH]1)OCO2` yielded an XC50 of 866 nM.
For `COc1ccc(C2CCN(CCCCNC(=O)c3ccc(NC(=O)c4ccc(Cl)cc4)cc3)C2)c(OC)c1` (stereo not given), the XC50 was 1200 nM.
With `Cc1nc(C)c(-c2ccc(-c3ccc(F)cc3)cc2)c(O)c1Br` the XC50 was 1070 nM.
`CN1CCN(c2ccc(CNc3ccc4ncc(-c5ccc(OC(F)(F)F)cc5)n4n3)cc2)CC1` gave an XC50 of 834 nM.
For `O=C(Cn1c(CCc2cccc(F)c2F)nc(=O)c2ccccc21)N(Cc1ccc(-c2ccc(C(F)(F)F)cc2)cc1)C1CCN(C2CCSCC2)CC1`, the XC50 was 856 nM.
`CCCN(Cc1nnc(-c2cccs2)o1)C(=O)CSc1nnnn1-c1cc(C)cc(C)c1` showed an XC50 of 500 nM.
`Cc1cc(=NN=Cc2cccc(F)c2)c2cc(F)ccc2[nH]1` showed an XC50 of 478 nM.
With `CN(C)c1ccc(-c2nnc(Sc3ccc(C#N)c([N+](=O)[O-])c3)n2Cc2ccco2)cc1` the XC50 was 854 nM.
`CCc1ccc(C(=O)Nc2cccc(CN3CCCN(Cc4ccc(O)cc4)CC3)c2)cc1` showed an XC50 of 1030 nM.
`CCN1CCCC1CN(Cc1ccc(-c2ccc(C(F)(F)F)cc2)cc1)C(=O)Cn1c(CCc2cccc(F)c2F)nc(=O)c2ccccc21` (stereo not given) showed an XC50 of 1590 nM.
In the case of `Cc1c[nH]c2ccc(/C=C/C(=O)NC3CCC(CCN4CCc5ccc(C#N)cc5CC4)CC3)cc12` (stereo not given), the XC50 is reported as 828 nM.
`CC(Cc1ccc(OCCN2CCN(c3cccc(Cl)c3)CC2)cc1)NCC(O)c1cccc(C(F)(F)F)c1` (stereo not given) gave an XC50 of 602 nM.
Compound `N#Cc1ccc(-c2ccc(C(=O)NCCCCN3CCC(c4cn(CCCO)c5ccccc45)CC3)cc2)cc1` has an XC50 of 750 nM.
Compound `COc1cccc(C=CC(=O)NC2CCC(CN3CCC(c4c[nH]c5ccccc45)CC3)CC2)c1OC` (stereo not given) has an XC50 of 740 nM.
With `Oc1cc(-c2nc(-c3ccccc3)[nH]c2-c2ccncc2)ccc1Cl` the XC50 was 814 nM.
Compound `CCOc1c(CCNCCCCNCCc2ccc3ccccc3c2OCC)ccc2ccccc12` has an XC50 of 596 nM.
Compound `CCCCOC(=O)c1ccc(Nc2cc(C)nc3ccc(OC)cc23)cc1` has an XC50 of 640 nM.
Compound `COc1ccc(-c2ccc(NC(=O)c3cccc(C#N)c3)cc2)cc1CN1CCC(O)CC1` has an XC50 of 821 nM.
`Cn1nc(-c2ccc(S(=O)(=O)N3CCC(CCN4CCC(c5c[nH]c6ccccc56)CC4)CC3)s2)cc1C(F)(F)F` showed an XC50 of 815 nM.
In the case of `Cn1nccc1C(=O)NCCNCc1ccc(-c2ccc(-c3nc4cc(C(F)(F)F)ccc4[nH]3)s2)cc1`, the XC50 is reported as 186 nM.
Work on `O=C(Nc1ccc(C(F)(F)F)cc1)c1ccc(S(=O)(=O)NCC2CCCN(CC3CCCCC3)C2)cc1` (stereo not given) yielded an XC50 of 152 nM.
`CC(C)CN(Cc1c(O)ccc2[nH]c(-c3ccc(F)cc3F)nc12)CC(C)C` was tested, and the XC50 was 802 nM.
Compound `CCOc1ccc2c(=NN=Cc3cc(OC)c(OC)cc3OC)cc(C)[nH]c2c1` has an XC50 of 997 nM.
Compound `COc1ccc(C=CC(=O)NC2CCC(CN3CCC(c4c[nH]c5ccccc45)CC3)CC2)cc1OC` (stereo not given) has an XC50 of 801 nM.
Work on `CC1(C)NC(N)=NC(=N)N1OCc1cc(Cl)cc2c1OCOC2` yielded an XC50 of 3.2 nM.
Work on `Clc1cc(Br)ccc1-c1ccc(CNCC2CCNCC2)o1` yielded an XC50 of 1510 nM.
In the case of `O=C(O)c1ccc(NC(=O)C2CC(=O)N(Cc3ccc(Cl)cc3)C(=Nc3ccc(Cl)cc3)S2)cc1` (stereo not given), the XC50 is reported as 530 nM.
`CC[C@H]1CN2CC[C@H]1C[C@@H]2[C@@H](OC(=O)c1ccc(Cl)cc1)c1ccnc2ccc(OC)cc12` showed an XC50 of 922 nM.
For `CN1CC=C(c2csc3ccc(NC(=O)Nc4ccc(-c5ccncc5)c5ccccc45)cc23)CC1`, the XC50 was 804 nM.
`CC(C)C1CCc2nc(N)nc(N)c2C1` (stereo not given) was tested, and the XC50 was 139 nM.
Work on `N=C(N)Nc1nc(-c2cccc(NC(=O)NCCc3c[nH]c4ccc(OCc5ccccc5)cc34)c2)cs1` yielded an XC50 of 805 nM.
`CCN(CC)CCN(Cc1ccc(-c2ccc(C(F)(F)F)cc2)cc1)C(=O)Cn1cc(Cc2cnn(C)c2)c(=O)nc1/C=C/c1ccc(F)cc1` gave an XC50 of 1060 nM.
With `Cc1[nH]c(C)c(-c2ccc(OCc3ccc(OC(F)(F)F)cc3)nc2)c(=O)c1Br` the XC50 was 140 nM.
`COc1ccc(C2CC(=O)C3=C(C2)NC(C)=C(C(=O)OC(C)C)C3c2ccc(O)cc2)cc1OC` (stereo not given) was tested, and the XC50 was 278 nM.
Compound `COc1ccc(C2c3ccccc3-c3nc(N)nc(N)c3C2C)cc1` (stereo not given) has an XC50 of 241 nM.
For `Cc1cc2c(cc1C(F)(F)F)N(C(=O)Nc1cccc(C(=O)NC3CCN(Cc4ccccc4)CC3)c1)CC2`, the XC50 was 912 nM.
With `Cc1noc(NC(=O)c2sc3ccccc3c2O)c1C` the XC50 was 852 nM.
`O=C(NC(c1ccc(Cl)cc1)c1ccc2cccnc2c1O)c1ccccc1` (stereo not given) was tested, and the XC50 was 558 nM.
In the case of `O=C(/C=C/c1ccc(Cl)cc1)NCCCCCN1CCN(C(=O)Nc2ccc(Cl)c(C(F)(F)F)c2)CC1`, the XC50 is reported as 920 nM.
With `O=C(C=Cc1ccc(-c2nc3ccccc3[nH]2)cc1)NC1CCN(Cc2ccccc2)CC1` the XC50 was 740 nM.
`CC(C)CNCc1cccc(-c2ccccc2CN(C(=O)NCCc2ccccc2)C2CCN(Cc3ccccc3)CC2)c1` was tested, and the XC50 was 1170 nM.
`CCN(CCCN1CCCCC1)c1cc(C)nc(Nc2cccc(C(F)(F)F)c2)n1` gave an XC50 of 289 nM.
For `O=C1COC2(CN1C1CCN(Cc3ccc(O)cc3Cl)C1)c1ccccc1-c1ccccc12` (stereo not given), the XC50 was 1330 nM.
`Cc1cc(C(F)(F)F)nn1-c1ccc(NC(=O)c2ccco2)cc1` gave an XC50 of 734 nM.
For `N=c1n(CCN2CCCC2)c2ccccc2n1CC(O)c1ccc(Cl)c(Cl)c1` (stereo not given), the XC50 was 277 nM.
`CN(/N=C/c1ccc(Cl)cc1)c1nc(NCCc2ccc(O)cc2)nc(N2CCNCC2)n1` gave an XC50 of 1350 nM.
Compound `CC(C)c1sc(-c2ccc(C(C)(C)C)cc2)nc1C(=O)NCCCN1CCCC1=O` has an XC50 of 672 nM.
`Nc1nc(N)c2c(ccc3c2ccn3Cc2cc3c(cc2Cl)OCO3)n1` gave an XC50 of 3.2 nM.
`O=C(CCCCCNC(=O)c1ccc(O)c(-c2ccc(Cl)c(Cl)c2)c1)NCCN1CCCC1` was tested, and the XC50 was 980 nM.
Compound `COc1ccc2nc3cc(Cl)ccc3c(NCCCCN)c2c1` has an XC50 of 732 nM.
`O=C(/C=C/c1ccc(Cl)c(Cl)c1)NCCCCCN1CCC(NC(=O)Nc2cc(F)ccc2F)CC1` gave an XC50 of 697 nM.
For `O=C(Nc1cccc(CN2CCCN(Cc3ccsc3)CC2)c1)c1cc2ccccc2s1`, the XC50 was 758 nM.
Compound `Cn1c(C2CC3CCC(C2)N3CC2CCC(NC(=O)/C=C/c3ccc(Cl)c(Cl)c3)CC2)nc2ccccc21` (stereo not given) has an XC50 of 563 nM.
In the case of `COc1ccc2nc(-c3ccc(C(=O)NCCCN4CCN(c5cc(Cl)ccc5OC)CC4)cc3OC)[nH]c2c1`, the XC50 is reported as 872 nM.
`CC1CC(C)CN(CCCNc2ccc(C(=O)Nc3ccc(C(F)(F)F)cc3)cc2[N+](=O)[O-])C1` (stereo not given) gave an XC50 of 203 nM.
`O=C(NC1CCN(Cc2ccc(Cl)cc2)CC1)c1cn(-c2ccccc2)nc1-c1cccnc1` showed an XC50 of 972 nM.
Work on `COc1cc(Cc2cnc(N)nc2N)ccc1OCc1ccc(F)c(F)c1` yielded an XC50 of 910 nM.
